Measured values published in US20130273649A1, “Culture medium for pluripotent stem cells” (UNIVERSITY OF SOUTHERN CALIFORNIA, priority 2012, published 2013).

Legend:
H9 human ESCs = test: Human ESC self-renewal culture; format: cell-based
From the text: As human ESCs share defining features with mouse EpiSCs (Hanna et al., 2010; Rossant, 2008; Tesar et al., 2007), we tested whether modulating β-catenin function can also promote human ESC self-renewal. […] Next, we examined the effect of CHIR/XAV and CHIR/IWR-1 on human ESC self-renewal. […] Similar results were obtained in H1 and HES3 human ESCs (data not shown). […] Moreover, human ESCs maintained in CHIR/IWR-1 express pluripotency markers Oct4, Nanog and Sox2 (FIG. 7E), and retain the ability to differentiate into cells of all three germ layers, both in vitro and in vivo (FIGS. 7F and 7G).
The basal medium for mouse EpiSC culture is the conventional mouse ESC medium, which consists of GMEM (Sigma) supplemented with 10% fetal bovine serum (FBS) (Hyclone), 2 mM L-glutamine (Invitrogen), 1 mM sodium pyruvate (Invitrogen), 1% nonessential amino acids (Invitrogen), and 0.1 mM (3-mercaptoethanol. Mouse EpiSCs were derived and maintained in the basal medium supplemented with FGF2/activin, CHIR/XAV, or CHIR/IWR-1. The basal medium for rat EpiSC culture is N2B27 (Tong et al., 2011), which was prepared by mixing 500 ml of DMEM/F12 (Invitrogen) with 500 ml of Neurobasal™ medium (Invitrogen), and adding 5 ml of N2 (Invitrogen), 10 ml of B27 (Invitrogen), 5 ml of Glutamax™ (Invitrogen), and 1 ml of 0.1 M β-mercaptoethanol (Sigma). The basal medium for human ESC culture consists of Knockout™ DMEM/F12 supplemented with 20% KSR (Invitrogen), 1% nonessential amino acids, 2 mM L-glutamine, and 0.1 mM (3-mercaptoethanol. Human ESCs were cultured in the basal medium supplemented with FGF2, CHIR/XAV, or CHIR/IWR-1.
H1, H9, HES-2 and HES-3 human ESC lines were kindly provided by the University of Southern California Stem Cell Core Facility. Human ESCs were routinely maintained on γ-irradiated MEF feeders in Knockout™ DMEM medium (Invitrogen) supplemented with 20% Knockout™ serum replacement (KSR; Invitrogen), 10 ng/ml FGF2 (PeproTech), 1% nonessential amino acids, 2 mM L-glutamine, and 0.1 mM β-mercaptoethanol. […]

[1] = test system: β-catenin/TCF-responsive TOPFlash reporter; test: TOPFlash reporter assay in mouse EpiSCs; format: cell-based; details: CD1 mouse EpiSCs, 12 hours
Description: (A) TOPFlash™ assay in CD1 mouse EpiSCs treated with the indicated inhibitors for 12 hours. Data represent mean±s.d. of three biological replicates. (B) Representative phase contrast images of CD1 mouse EpiSCs cultured in the indicated conditions for 7 days. (C) Western blot analysis of CD1 mouse EpiSCs treated with the indicated inhibitors for 12 h. (D) qRT-PCR analysis of Axin1 and Axin2 mRNA levels in CD1 mouse EpiSCs stably transfected with Axin1 shRNA or Axin2 shRNA. Data represent mean±s.d. of three biological replicates. (E) Colony assay on CD1 mouse EpiSCs stably transfected with scramble, Axin1, or Axin2 shRNAs. Cells were plated onto a 6-well plate at a density of 5,000 cells/well and cultured in CHIR/IWR-1. Colonies were counted 7 days after plating. Data represent the total combined numbers of colonies from two independent experiments in which each shRNA-transfected group was cultured in one well of a 6-well plate. (F) Representative phase contrast images of CD 1 mouse EpiSCs stably transfected with the indicated shRNAs and cultured in CHIR/IWR-1 for 7 days. (G) Western blot analysis of CD1 mouse EpiSCs overexpressing Flag-tagged Axin1 or Axin2. (H) Representative phase contrast images of CD1 mouse EpiSCs overexpressing Axin1 or Axin2 and cultured in CHIR for 7 days. Axin2-overexpressing EpiSCs could be continually passaged in CHIR alone. Scale bars, 50 μm (B, F and H)
Next, we investigated the mechanism by which CHIR/XAV promotes EpiSC self-renewal. By inhibiting GSK3 phosphorylation of β-catenin, CHIR stabilizes β-catenin, which then trans-locates to the nucleus and forms complexes with DNA-binding proteins, including TCFs, to activate transcription (Logan and Nusse, 2004). […]
For quantifying relative Oct3/4 enhancer activities, pGL3-Oct4 DE and pGL3-Oct4 PE plasmids (gifts from Hans Schöler's lab) were co-transfected with the Renilla vector, using the Amaxa™ Transfection Kit (Lonza). […] For quantifying relative β-catenin/Tcf transcriptional activity, pGL2-SuperTOP™ plasmid (gift from Randall Moon) was co-transfected with the Renilla vector and assayed accordingly.

Row | Compound | self-renewal of Axin2-overexpressing human ESCs (H9 human ESCs; Axin2-hESC (H9), CHIR alone) | human ESC self-renewal / differentiation (H9 human ESCs; H9 human ESCs, CHIR 3 μM, IWR-1 2.5 μM, XAV939 2 μM) | TOPFlash reporter activity [1] | effect on TOPFlash activity induced by CHIR ([1]; added to CHIR)
1 | Cc1c[nH]c(-c2cnc(NCCNc3ccc(C#N)cn3)nc2-c2ccc(Cl)cc2Cl)n1 [CHIR99021, 6-((2-((4-(2,4-Dichlorophenyl)-5-(4-methyl-1H-imidazol-2-yl)pyrimidin-2-yl)amino)ethyl)amino)nicotinonitrile] | could support stable and long-term self-renewal of Axin2-hESCs | induced differentiation of H9 human ESCs | strongly induced | 
2 | Oc1nc(-c2ccc(C(F)(F)F)cc2)nc2c1CSCC2 [XAV939, 3,5,7,8-Tetrahydro-2-[4-(trifluoromethyl)phenyl]-4H-thiopyrano[4,3-d]pyrimidin-4-one] |  |  |  | abolished the TOPFlash activity induced by CHIR
